The structures appear in SMILES notation.

This experiment deals with T1, human orexin-2 receptor (OX2R) (Homo sapiens, UniProt O43614).
T1 construct: expressed in transfected cells
T1 sequence (O43614 1-444): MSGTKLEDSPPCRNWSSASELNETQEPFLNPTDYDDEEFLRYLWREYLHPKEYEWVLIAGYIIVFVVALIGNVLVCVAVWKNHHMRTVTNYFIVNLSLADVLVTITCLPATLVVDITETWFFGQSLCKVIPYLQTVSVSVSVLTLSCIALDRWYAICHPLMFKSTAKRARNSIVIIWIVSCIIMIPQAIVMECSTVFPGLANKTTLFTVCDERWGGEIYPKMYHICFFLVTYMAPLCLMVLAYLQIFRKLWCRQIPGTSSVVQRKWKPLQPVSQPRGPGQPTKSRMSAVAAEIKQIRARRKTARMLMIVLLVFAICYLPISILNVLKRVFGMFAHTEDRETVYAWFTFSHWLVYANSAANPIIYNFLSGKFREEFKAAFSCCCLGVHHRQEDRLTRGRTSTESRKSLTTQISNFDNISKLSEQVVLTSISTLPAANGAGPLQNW
Nature of the experiment: Human OX2R IP1 assay. In kind it is cell-based. The settings on record: T-Rex CHO cells stably overexpressing human OX2R; IP1 (inositol monophosphate) accumulation, HTRF; 1 hr at 37 degrees C. The protocol: T-Rex CHO cells stably overexpressing the human orexin-2 receptor (OX2R) are induced overnight with 1 μg/mL of doxycycline in a T225 flask. 24 hours post induction, cells are lifted with accutase and plated into a 384-well proxy plate at 30,000 cells/well. Cells are then treated with different test compounds in 1× stimulation buffer containing 10 mM Hepes, 1 mM CaCl2), 0.5 mM MgCl2, 4.2 mM KCl, 146 mM NaCl, 5.5 mM glucose, and 50 mM LiCl, pH 7.4, for 1 hr at 37 degrees C. Following incubation, the reaction is terminated by the addition of detection mix, which is composed of IP1-d2 and anti-IP1-cryptate diluted in lysis buffer as well as 1× stimulation buffer. The plates are allowed to incubate for 1 hour at room temperature and are then read in the En Vision® multimode plate reader, measuring inositol phosphate levels.
Cisbio IP1 is a cell-based functional assay quantifying the accumulation of inositol monophosphate (IP), a metabolite released as a result of orexin 2 receptor activation through the phospholipase C-Gq signaling pathway. This is a competitive immunoassay in which the IP1 produced by the cells upon receptor activation competes with the IP1 analog coupled to the d2 fluorophore (acceptor) for binding to an anti-IP1 monoclonal antibody labeled with Eu cryptate (donor). The measured HTRF-FRET based signal is inversely proportional to the IP1 concentration produced.
The EC50 values reported in Table 2 were obtained according to the human OX2R IP1 assay described above. Data are the mean EC50 values±S.E.M.
A general note: Time-resolved FRET reads energy transfer from a long-lived donor to a nearby acceptor.

By EC50 is commonly meant the concentration that produces a half-maximal response. Higher therefore signals a need for much substance. On to `O=S(=O)(N[C@H]1CCN(c2cccnn2)C[C@H]1CO[C@H]1CC[C@@H](c2cccc(F)c2)CC1)N1CCCC1` [Compound 26], for which the concentration for a half-maximal effect (EC50) is more than 1000 nM.

`CN1CC2(C1)CN(S(=O)(=O)N[C@H]1CCN(c3cccnn3)C[C@H]1CO[C@H]1CC[C@@H](c3cccc(F)c3)CC1)C2` [Compound 27] yielded an EC50 of more than 1000 nM.

Compound `O=S(=O)(N[C@H]1CCN(c2cccnn2)C[C@H]1CO[C@H]1CC[C@@H](c2cccc(F)c2)CC1)N1CC(CF)C1` [Compound 28] came in with an EC50 of more than 1000 nM.

Take `O=S(=O)(N[C@H]1CCN(c2cccnn2)C[C@H]1CO[C@H]1CC[C@@H](c2cccc(F)c2)CC1)N1CCC(F)(F)C1` [Compound 29]: the EC50 was more than 1000 nM.

The compound `CN(C)C1CN(S(=O)(=O)N[C@H]2CCN(c3cccnn3)C[C@H]2CO[C@H]2CC[C@@H](c3cccc(F)c3)CC2)C1` [Compound 30] showed an EC50 of more than 1000 nM.

Turning to `O=S(=O)(N[C@H]1CCN(c2cccnn2)C[C@H]1CO[C@H]1CC[C@@H](c2cccc(F)c2)CC1)N1CC(Cl)C1` [Compound 31], the concentration giving a half-maximal response (EC50) is more than 1000 nM.

Compound `CN1CC(NS(=O)(=O)N[C@H]2CCN(c3cccnn3)C[C@H]2CO[C@H]2CC[C@@H](c3cccc(F)c3)CC2)C1` [Compound 33] displayed an EC50 of more than 1000 nM.

As for `O=S(=O)(N[C@H]1CCN(c2cccnn2)C[C@H]1CO[C@H]1CC[C@@H](c2cccc(F)c2)CC1)N1CC2(COC2)C1` [Compound 34], the concentration for a half-maximal effect (EC50) was more than 1000 nM.

As for `CN(C)S(=O)(=O)N[C@H]1CCN(C(=O)c2cnco2)C[C@H]1CO[C@H]1CC[C@@H](c2cccc(F)c2)CC1` [Compound 44], the 50% effective concentration (EC50) is less than 100 nM.

`CN(C)S(=O)(=O)N[C@H]1CCN(C(=O)c2cncs2)C[C@H]1CO[C@H]1CC[C@@H](c2cccc(F)c2)CC1` [Compound 45] had an EC50 of less than 100 nM.

`CN(C)S(=O)(=O)N[C@H]1CCN(C(=O)c2cncn2C)C[C@H]1CO[C@H]1CC[C@@H](c2cccc(F)c2)CC1` [Compound 46]: the EC50 lay within 100 to 1000 nM.

Consider `CN(C)S(=O)(=O)N[C@H]1CCN(C(=O)C2(F)CC2)C[C@H]1CO[C@H]1CC[C@@H](c2cccc(F)c2)CC1` [Compound 47], for which the half-maximal effective concentration (EC50) was less than 100 nM.

Regarding `CN(C)S(=O)(=O)N[C@H]1CCN(C(=O)OCC(F)F)C[C@H]1CO[C@H]1CC[C@@H](c2cccc(F)c2)CC1` [Compound 48], the EC50 was less than 100 nM.

`CN(C)S(=O)(=O)N[C@H]1CCN(C(=O)c2ccnn2C)C[C@H]1CO[C@H]1CC[C@@H](c2cccc(F)c2)CC1` [Compound 49] returned an EC50 of more than 1000 nM.

`CC(C)OC(=O)N1CC[C@H](NS(=O)(=O)N(C)C)[C@H](CO[C@H]2CC[C@@H](c3cccc(F)c3)CC2)C1` [Compound 50] came in with an EC50 of 100 to 1000 nM.

Consider `CN1CCCC1C(=O)N1CC[C@H](NS(=O)(=O)N(C)C)[C@H](CO[C@H]2CC[C@@H](c3cccc(F)c3)CC2)C1` (some centres unmarked) [Compound 51], for which the EC50 is more than 1000 nM.

Consider `CN(C)S(=O)(=O)N[C@H]1CCN(C(=O)C2CNC(=O)C2)C[C@H]1CO[C@H]1CC[C@@H](c2cccc(F)c2)CC1` (some centres unmarked) [Compound 52], for which the EC50 was more than 1000 nM.

Consider `CN(C)S(=O)(=O)N[C@H]1CCN(C(=O)[C@H]2C[C@@H](F)C2)C[C@H]1CO[C@H]1CC[C@@H](c2cccc(F)c2)CC1` [Compound 53], for which the EC50 was less than 100 nM.

Take `CN(C)S(=O)(=O)N[C@H]1CCN(C(=O)[C@H]2C[C@H](F)C2)C[C@H]1CO[C@H]1CC[C@@H](c2cccc(F)c2)CC1` [Compound 54]: the EC50 is less than 100 nM.

Consider `CN(C)S(=O)(=O)N[C@H]1CCN(C(=O)N2CCOCC2)C[C@H]1CO[C@H]1CC[C@@H](c2cccc(F)c2)CC1` [Compound 55], for which the EC50 was less than 100 nM.

For the compound `CC(C)N(C)[C@H]1CCN(S(=O)(=O)N[C@H]2CCN(c3cccnn3)C[C@H]2CO[C@H]2CC[C@@H](c3cccc(F)c3)CC2)C1` [Compound 56], the EC50 was more than 1000 nM.

The compound `CC(C)N(C)[C@@H]1CCN(S(=O)(=O)N[C@H]2CCN(c3cccnn3)C[C@H]2CO[C@H]2CC[C@@H](c3cccc(F)c3)CC2)C1` [Compound 57] showed an EC50 of more than 1000 nM.

The compound `CN(C)S(=O)(=O)N[C@H]1CCN(C(=O)OCC2(F)CC2)C[C@H]1CO[C@H]1CC[C@@H](c2cccc(F)c2)CC1` [Compound 58] yielded an EC50 of more than 1000 nM.

`CN1CC(OC(=O)N2CC[C@H](NS(=O)(=O)N(C)C)[C@H](CO[C@H]3CC[C@@H](c4cccc(F)c4)CC3)C2)C1` [Compound 59] registered an EC50 of more than 1000 nM.

The compound `CN(C)S(=O)(=O)N[C@H]1CCN(C(=O)OC2CC2)C[C@H]1CO[C@H]1CC[C@@H](c2cccc(F)c2)CC1` [Compound 60] returned an EC50 of more than 1000 nM.

Take `CN(C)S(=O)(=O)N[C@H]1CCN(C(=O)N2CCC(F)(F)C2)C[C@H]1CO[C@H]1CC[C@@H](c2cccc(F)c2)CC1` [Compound 61]: the EC50 was less than 100 nM.

The compound `CN(C)S(=O)(=O)N[C@H]1CCN(C(=O)N2CC(F)(F)C2)C[C@H]1CO[C@H]1CC[C@@H](c2cccc(F)c2)CC1` [Compound 62] yielded an EC50 of less than 100 nM.

Turning to `COCCN(C)S(=O)(=O)N[C@H]1CCN(c2cccnn2)C[C@H]1CO[C@H]1CC[C@@H](c2cccc(F)c2)CC1` [Compound 63], the EC50 is more than 1000 nM.

`CN(CCF)S(=O)(=O)N[C@H]1CCN(c2cccnn2)C[C@H]1CO[C@H]1CC[C@@H](c2cccc(F)c2)CC1` [Compound 64] had an EC50 of more than 1000 nM.

For the compound `C[C@@H](OC(=O)N1CC[C@H](NS(=O)(=O)N(C)C)[C@H](CO[C@H]2CC[C@@H](c3cccc(F)c3)CC2)C1)C(F)F` [Compound 65], the EC50 lay within 100 to 1000 nM.

As to `CN(C)S(=O)(=O)N[C@H]1CCN(C(=O)OCC2(F)CCC2)C[C@H]1CO[C@H]1CC[C@@H](c2cccc(F)c2)CC1` [Compound 66], the EC50 is more than 1000 nM.

In turn, `O=C(NC1CCN(c2cccnn2)CC1CO[C@H]1CC[C@@H](c2cccc(F)c2)CC1)C(F)(F)F` (some centres unmarked) [Compound 67] gave an EC50 of more than 1000 nM.

The values are drawn from patent US20250223276A1, “Substituted Pyrrolidinyl And Piperidinyl Compounds And Related Methods Of Treatment” (Alkermes, Inc., priority 2022, published 2025).
